Test results: US12686674B2, “Crystal form of compound represented by formula I, and preparation therefor and application thereof” (Shanghai Zhimeng Biopharma, Inc., priority 2021, dated 2026)

Assay: Hygroscopicity by DVS at 25° C.
Format: physicochemical
Protocol: Hygroscopicity data of samples were collected using an ADVENTURE series dynamic vapor phase adsorption system (DVS) under N2 protection. Sample dosage ~30 mg. The testing method for anhydrous crystal form is as follows: • 1) Relative humidity increase process: 0% RH to 90% RH at a rate of 10% RH/stage; 90% RH to 95% RH at a rate of 5% RH/stage; • 2) Relative humidity reduction process: 95% RH to 90% RH at a rate of 5% RH/stage; 90% RH to 5% RH at a rate of 10% RH/stage. H Nuclear Magnetic Resonance Spectroscopy (H-NMR)

hygroscopicity (DVS at 25° C.): hardly hygroscopic
weight gain (DVS) (at 80% RH, 25° C.): 0.14%
crystal form after DVS testing (XRPD) (before and after DVS test): unchanged
SMILES: O=C1CO[C@H](c2cn(-c3ccc(Br)cc3)nc2-c2ccc(F)cc2)N1CCc1ccc2[nH]c(=O)[nH]c2c1 [Crystal form A]
